Consider 4 compounds from PMC8585049, “Z-DNA as a Tool for Nuclease-Free DNA Methyltransferase Assay” (International Journal of Molecular Sciences, 2021).

Entries after “also recorded” stand apart in the source; their conditions may differ. Read-outs that look alike come from different tables or passages of the source.

The term IC50 denotes the midpoint of a concentration-inhibition curve.

In experiment [1] the target is T1, M.SssI (Spiroplasma monobiae, UniProt P15840).
T1 construct: purchased NEB (New England Biolabs, Inc., Ipswich, MA, USA)
As to the kind of experiment: smFRET B-Z transition-based DNA methylation (DMT inhibition) assay with M.SssI, UM core substrate. It counts as biochemical. The protocol: (§1) Here we define the degree of inhibition as: DOI=P(Z;DMT)−P(Z;DMT+drug)/P(Z;DMT)−P(Z;0) where P(Z;0) is the population of Z-DNA without any treatment (neither DMT nor inhibitor drug), P(Z;DMT) the Z-DNA population after incubation with DMT, and P(Z;DMT+drug) the Z-DNA population after incubation with DMT together with an inhibitor drug. […] On the opposite limit, the inhibition would be complete (DOI = 1) if P(Z;DMT+drug) completely reduces to the level of P(Z;0) . We employed the UM and HM molecules as substrates for M.SssI and DNMT1, respectively. We used 50 mM Mg^2+ and applied 80 U/mL M.SssI or 100 U/mL DNMT1. […] To check this possibility, we reduced SAM to 10 μM and repeated the inhibitor assay.
(§2) DMTs can change cytosine to methylcytosine by converting SAM to SAH (S-adenosyl homocysteine). In the inhibitor-free assay, we added reagents to water (or 0, 1.75, and 2.5% DMSO in water in control reactions for inhibitor assays) in the following order: SAM, 10× buffer, DNA, and M.SssI or DNMT1. In the DNMT1 assay, the reaction mixture of 20 μL contained 25 nM DNA duplex and 20~400 U/mL (in the inhibitor-free assays) or 100 U/mL (in the inhibitor assays) DNMT1 in the reaction buffer (160 μM SAM and 100 μg/mL BSA in 1× DNMT1 buffer (200 mM NaCl, 50 mM Tris-HCl, 1 mM EDTA, 1 mM DTT, 50% glycerol, pH 7.5)). In the M.SssI assay, the reaction mixture of 20 μL contained 25 nM DNA duplex and 10~200 U/mL (in the inhibitor-free assays) or 80 U/mL (in the inhibitor assays) M.SssI in the reaction buffer (160 μM SAM in 1× NEB buffer 2 (50 mM NaCl, 10 mM Tris-HCl, 10 mM MgCl2, 1 mM DTT, pH 7.9)). The effect of DMSO itself was tested because it was used in a solvent for DMT inhibitors. […] The mixture was incubated at 37 °C. After various lengths of incubation time (typically 2 h), the methylation reaction was stopped by heat inactivation of the enzymes at 65 °C for 20 min and the reaction mixtures were stored at −20 °C until the future experiments with the smFRET technique.
In the DMT inhibition assays, DMT inhibitors at various concentrations were added together with either M.SssI or DNMT1 when the enzyme was added to the reaction tube (Figure 4A). The reaction and analysis were performed identically except for the addition of inhibitors. […] In these assays, we varied the concentrations of the reagents (proteins or inhibitors) or incubation times. […]

In experiment [2] the target is T2, human DNA methyltransferase 1 (DNMT1) (Homo sapiens, UniProt P26358).
T2 construct: purchased NEB (New England Biolabs, Inc., Ipswich, MA, USA)
As to the kind of experiment: smFRET B-Z transition-based DNA methylation (DMT inhibition) assay with DNMT1, HM core substrate. Type of experiment: biochemical. The following applies: 100 U/mL DNMT1, HM core, 160 μM SAM, 50 mM Mg2+, 2-h incubation; read-out: IC50 (degree of inhibition of DNMT1 methylation activity). The protocol: as §1
as §2, with “technique. […]” for “technique.”

T2 sequence (P26358 whole entry): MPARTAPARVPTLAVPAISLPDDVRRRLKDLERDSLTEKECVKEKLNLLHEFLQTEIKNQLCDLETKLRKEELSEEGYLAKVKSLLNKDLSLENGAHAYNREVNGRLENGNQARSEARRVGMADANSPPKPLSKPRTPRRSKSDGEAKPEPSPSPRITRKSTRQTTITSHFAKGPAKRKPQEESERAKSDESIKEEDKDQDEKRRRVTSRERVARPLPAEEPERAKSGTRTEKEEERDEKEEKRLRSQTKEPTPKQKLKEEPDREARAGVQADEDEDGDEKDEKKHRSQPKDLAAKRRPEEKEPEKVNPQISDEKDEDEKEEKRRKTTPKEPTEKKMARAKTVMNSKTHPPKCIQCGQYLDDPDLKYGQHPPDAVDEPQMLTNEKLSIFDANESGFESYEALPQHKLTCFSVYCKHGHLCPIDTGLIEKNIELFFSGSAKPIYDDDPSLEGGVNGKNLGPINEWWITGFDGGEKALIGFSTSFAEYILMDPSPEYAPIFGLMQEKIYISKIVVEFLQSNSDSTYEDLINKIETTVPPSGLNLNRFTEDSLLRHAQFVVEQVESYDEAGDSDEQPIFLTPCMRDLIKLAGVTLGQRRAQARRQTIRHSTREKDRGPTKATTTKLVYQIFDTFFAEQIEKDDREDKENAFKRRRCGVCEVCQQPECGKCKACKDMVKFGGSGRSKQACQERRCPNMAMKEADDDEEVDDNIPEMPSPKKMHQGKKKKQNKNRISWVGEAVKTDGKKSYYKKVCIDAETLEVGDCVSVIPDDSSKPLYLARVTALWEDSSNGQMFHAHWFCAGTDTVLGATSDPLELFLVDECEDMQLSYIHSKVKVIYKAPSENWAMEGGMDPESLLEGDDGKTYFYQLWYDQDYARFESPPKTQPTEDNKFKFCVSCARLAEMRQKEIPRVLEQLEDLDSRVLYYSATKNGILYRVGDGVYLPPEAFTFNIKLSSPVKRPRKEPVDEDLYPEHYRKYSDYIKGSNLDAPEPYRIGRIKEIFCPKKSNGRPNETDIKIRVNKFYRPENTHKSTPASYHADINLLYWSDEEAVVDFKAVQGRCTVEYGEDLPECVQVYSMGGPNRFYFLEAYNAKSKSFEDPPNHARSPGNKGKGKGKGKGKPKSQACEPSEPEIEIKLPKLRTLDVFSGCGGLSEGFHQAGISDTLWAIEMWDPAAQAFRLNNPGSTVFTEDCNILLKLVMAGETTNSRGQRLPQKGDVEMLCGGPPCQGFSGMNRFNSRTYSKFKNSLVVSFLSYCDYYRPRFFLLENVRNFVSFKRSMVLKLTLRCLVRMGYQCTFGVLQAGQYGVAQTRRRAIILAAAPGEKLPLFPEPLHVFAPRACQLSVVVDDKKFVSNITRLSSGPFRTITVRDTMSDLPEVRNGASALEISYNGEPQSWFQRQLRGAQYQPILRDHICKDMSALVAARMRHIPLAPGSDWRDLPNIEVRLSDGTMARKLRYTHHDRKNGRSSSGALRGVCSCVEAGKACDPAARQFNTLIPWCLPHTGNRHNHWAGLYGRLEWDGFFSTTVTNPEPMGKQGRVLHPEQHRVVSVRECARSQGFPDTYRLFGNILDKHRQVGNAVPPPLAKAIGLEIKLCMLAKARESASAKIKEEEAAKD
T1 sequence (P15840 whole entry): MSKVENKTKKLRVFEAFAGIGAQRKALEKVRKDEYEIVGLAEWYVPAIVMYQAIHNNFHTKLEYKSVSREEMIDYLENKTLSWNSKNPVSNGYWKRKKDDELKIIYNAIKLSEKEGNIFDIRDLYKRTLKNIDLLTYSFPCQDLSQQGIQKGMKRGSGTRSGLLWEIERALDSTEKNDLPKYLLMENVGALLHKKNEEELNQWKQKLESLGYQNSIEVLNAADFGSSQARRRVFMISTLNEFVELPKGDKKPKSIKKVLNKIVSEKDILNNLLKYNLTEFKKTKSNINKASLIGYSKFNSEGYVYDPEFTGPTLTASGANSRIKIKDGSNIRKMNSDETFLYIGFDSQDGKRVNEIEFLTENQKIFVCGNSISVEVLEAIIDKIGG

Turning to `C[S+](C)[O-]` [DMSO], the “Effect of [DMSO] on DNA methylation activity of M.SssI” value in experiment [1] ([DMSO] up to 5 %, [M.SssI] = 80 U/ml, 50 mM Mg2+, Figure S1) is “remains unchanged; also recorded: negligible effect”. For `O=C(O[C@@H]1Cc2c(O)cc(O)cc2O[C@@H]1c1cc(O)c(O)c(O)c1)c1cc(O)c(O)c(O)c1` [EGCG, epigallocatechin gallate], the 50% inhibitory concentration (IC50) is about 80 µM in experiment [1] (80 U/mL M.SssI, UM core, 160 μM SAM, 50 mM Mg2+, 2-h incubation, read-out: IC50 (degree of inhibition of M.SssI methylation activity)); under 5 µM in experiment [1] ([SAM] = 10 μM, M.SssI, Figure S8, read-out: IC50 (degree of inhibition of M.SssI methylation activity) with low [SAM]); about 100 µM in experiment [2].

In the case of `COc1cc(/C=C/C(=O)CC(=O)/C=C/c2ccc(O)c(OC)c2)ccc1O` [curcumin], the concentration for half-maximal inhibition (IC50) in experiment [2] was about 1.3 µM. In the case of `O=c1c(-c2ccc(O)cc2)coc2cc(O)cc(O)c12` [genistein], the IC50 was about 600 µM in experiment [1] (IC50 (degree of inhibition of M.SssI methylation activity), 80 U/mL M.SssI, UM core, 160 μM SAM, 50 mM Mg2+, 2-h incubation) and about 400 µM in experiment [2].
